From patent publication US6900193B1, “Structural modification of 19-norprogesterone I: 17-α-substituted-11-β-substituted-4-aryl and 21-substituted 19-norpregnadienedione as new antiprogestational agents” (The United States of America as represented by the …, priority 1996, dated 2005)
Entries after “also recorded” stand apart in the source; their conditions may differ.

Legend:
[1] = test system: progesterone-induced endometrial proliferation; assay: AntiClauberg test; assay type: in vivo, rabbit; parameters: key to ANTIPROGESTATIONAL Anti-Clauberg: relative oral potency vs. reference compound set to 100; settings: for ANTIPROGESTATIONAL ACTIVITY ANTI-CLAUBERG: estrogen-primed immature rabbits, CDB-2477 = 1.0 (assigned); for BIOLOGICAL ACTIVITY antiClauberg: Table 2; for BIOLOGICAL ACTIVITY antiClauberg / ANTIPROGESTATIONAL Anti-Clauberg: CDB-2914 = 100 (assigned); for antiClauberg / oral antiprogestational activity, in words: versus the standard 69B; for ANTIPROGESTATIONAL Anti-Clauberg: relative potency
Summary of the method: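 Immature NZW rabbits were estradiol-primed s.c. for 6 days, then given progesterone 0.8 mg/day s.c. plus compound orally or s.c. for 5 days. Uteri were sectioned and H&E-scored for endometrial glandular proliferation (McPhail). Percent inhibition was calculated per dose versus progesterone-only animals.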

[2] = molecular target: T1, progesterone receptor (estrogen-primed rabbit uterus) (Oryctolagus cuniculus, UniProt P06186); assay: Relative binding affinity, progesterone receptor; settings: for binding affinity for the progesterone receptor, in words: rabbit uterine, versus CDB-2914 (69B) where stated; for BINDING AFFINITY Progester: Table 2; for BINDING AFFINITY Progester / RELATIVE BINDING AFFINITY Progesterone: progesterone = 100%; for binding affinities compared with the standard, compound 69B: progesterone receptor implied (rabbit or human isoform A not specified)
T1 construct: preparation of cytosols for the progesterone and glucocorticoid receptor assays; from tissue; host or cells: uterus of estradiol-primed immature female New Zealand White rabbits (cytosol)
T1 sequence (P06186 1-930): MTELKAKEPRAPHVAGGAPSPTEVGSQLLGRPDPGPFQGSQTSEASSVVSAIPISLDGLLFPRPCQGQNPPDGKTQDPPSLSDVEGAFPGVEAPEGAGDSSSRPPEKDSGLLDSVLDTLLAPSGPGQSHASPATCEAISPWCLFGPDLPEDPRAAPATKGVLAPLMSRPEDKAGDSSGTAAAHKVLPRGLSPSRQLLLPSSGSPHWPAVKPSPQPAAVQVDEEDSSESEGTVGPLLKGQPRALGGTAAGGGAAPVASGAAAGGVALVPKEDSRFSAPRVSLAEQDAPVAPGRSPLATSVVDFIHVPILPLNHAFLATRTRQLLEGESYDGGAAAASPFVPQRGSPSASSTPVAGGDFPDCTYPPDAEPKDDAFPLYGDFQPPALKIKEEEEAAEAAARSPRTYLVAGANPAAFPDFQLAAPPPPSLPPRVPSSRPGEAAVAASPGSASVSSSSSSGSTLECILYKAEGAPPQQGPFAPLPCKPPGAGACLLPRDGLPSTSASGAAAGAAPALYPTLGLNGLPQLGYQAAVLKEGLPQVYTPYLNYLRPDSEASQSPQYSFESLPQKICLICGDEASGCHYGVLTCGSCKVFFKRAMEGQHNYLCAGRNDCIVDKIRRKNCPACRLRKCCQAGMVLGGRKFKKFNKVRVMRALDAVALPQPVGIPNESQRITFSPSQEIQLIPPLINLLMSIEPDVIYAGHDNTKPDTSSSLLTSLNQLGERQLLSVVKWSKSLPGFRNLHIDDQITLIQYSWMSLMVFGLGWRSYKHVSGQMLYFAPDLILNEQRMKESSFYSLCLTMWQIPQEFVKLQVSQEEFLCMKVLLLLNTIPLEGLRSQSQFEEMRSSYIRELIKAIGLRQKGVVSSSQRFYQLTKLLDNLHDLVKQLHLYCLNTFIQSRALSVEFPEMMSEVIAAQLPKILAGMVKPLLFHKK

| SMILES | binding affinity for the progesterone receptor, in words [2] | BIOLOGICAL ACTIVITY antiClauberg ([1]; oral) | BINDING AFFINITY Progester ([2]; estrogen-primed rabbit uterus) [%] | binding affinities compared with the standard, compound 69B [2] | antiClauberg / oral antiprogestational activity, in words ([1]; oral) | ANTIPROGESTATIONAL Anti-Clauberg ([1]; oral) | RELATIVE BINDING AFFINITY Progesterone ([2]; estrogen-primed rabbit uterus) [%] | also measured |
| --- | --- | --- | --- | --- | --- | --- | --- | --- |
| CC#C[C@]1(O)CC[C@H]2[C@@H]3CCC4=CC(=O)CCC4=C3[C@@H](c3ccc(N(C)C)cc3)C[C@@]21C [mifepristone] | greater binding affinity |  |  |  |  |  |  | ANTIPROGESTATIONAL ACTIVITY ANTI-CLAUBERG ([1]; oral): 1.0 |
| COCC(=O)C1(OC(C)=O)CCC2C3CCC4=CC(=O)CCC4=C3C(c3ccc(N4CCCCC4)cc3)CC21C (stereo not drawn) [Compound 123a, 17α-Acetoxy-1113-[4-(N-piperidino)phenyl]-21-methoxy-19-norpregna-4,9-diene-3,20-dione] |  | 45-83 | 174 |  |  |  |  |  |
| CC(=O)OCC(=O)[C@@]1(OC(C)=O)CC[C@H]2[C@@H]3CCC4=CC(=O)CCC4=C3[C@@H](c3ccc(C(C)=O)cc3)C[C@@]21C [Compound 106b, 17α,21-Diacetoxy-11β-(4-acetylphenyl)19-norpregna-4,9-diene-3,20-dione] |  | 34 | 136 | binding affinities greater than that observed for the standard |  |  |  |  |
| CC(=O)O[C@]1(C(C)=O)CC[C@H]2[C@@H]3CCC4=CC(=O)CCC4=C3[C@@H](c3ccc(N4CCCCC4)cc3)C[C@@]21C [Compound 71, 17α-Acetoxy-11β-[4(N-Piperidino)phenyl]-19-norpregna-4,9-diene-3,20-dione] |  | 253 | 123 | binding affinities greater than that observed for the standard | greater activity than the standard |  |  |  |
| COCC(=O)[C@@]1(OC)CC[C@H]2[C@@H]3CCC4=CC(=O)CCC4=C3[C@@H](c3ccc(N(C)C)cc3)C[C@@]21C [Compound 113a, 17α,21-Dimethoxy-11β-[4-(N,N-dimethylamino)phenyl]-19-norpregna-4,9-diene-3,20-dione] | high binding affinity | 229 | 117 | binding affinities greater than that observed for the standard | greater activity than the standard; also recorded: more than twice as active at the standard |  |  |  |
| CC(=O)OCC(=O)[C@@]1(OC(C)=O)CCC2C3CCC4=CC(=O)CCC4=C3C(c3ccc(N(C)C)cc3)C[C@@]21C (stereo partly drawn) [Compound 15, 17α,21-diacetoxy-11β-[4-(N,N-dimethylamino)phenyl]-19-norpregna-4,9-diene-3,20-dione] |  |  |  |  | greater activity than the standard | 279 | 103 | antiprogestational potency compared to the lead compound (CDB-2914), oral antiClauberg test ([1]; oral, versus CDB-2914): 2.79 times |
| CC(=O)O[C@]1(C(=O)CCl)CCC2C3CCC4=CC(=O)CCC4=C3C(c3ccc(N(C)C)cc3)C[C@@]21C (stereo partly drawn) [Compound 14A] | did not show significant differences |  |  | binding affinities greater than that observed for the standard |  | 68 | 127 |  |
| CN(C)c1ccc(C2CC3(C)C(CCC34OCC4=O)C3CCC4=CC(=O)CCC4=C23)cc1 (stereo not drawn) [Compound 12, 17-Spirooxetano-3′-oxo-11β-[4-(N,N-dimethylamino)phenyl]-19-norpregna-4,9-dien-3-one] |  |  |  | binding affinities greater than that observed for the standard |  | 29 | 261 |  |
| CC(=O)O[C@]1(C(=O)CF)CCC2C3CCC4=CC(=O)CCC4=C3C(c3ccc(N(C)C)cc3)C[C@@]21C (stereo partly drawn) [Compound 13, 17α-acetoxy-21-fluoro-11β-[4-(N,N-dimethylamino)phenyl]-19-norpregna-4,9-diene-3,20-dione] | did not show significant differences |  |  | binding affinities greater than that observed for the standard |  | 80 | 125 |  |
| CC(=O)O[C@]1(C(C)=O)CC[C@H]2[C@@H]3CCC4=CC(=O)CCC4=C3[C@@H](c3ccc(N(C)C)cc3)C[C@@]21C [Compound 69B, 17α-acetoxy-11β-(4-N,N-dimethylaminophenyl)-19-norpregna-4,9-diene-3,20-dione, reference compound] |  | 100 | 122 |  |  | 100 | 122 | potency of the standard relative to mifepristone in the antiClauberg test ([1]; oral administration): 3 times; ANTIPROGESTATIONAL ACTIVITY ANTI-CLAUBERG ([1]; oral): 3.27; potency of 69B relative to mifepristone in the antiClauberg test ([1]; oral, 95% C.I.=1.41-7.58, previous studies): 3.27 ×; RELATIVE BINDING AFFINITY Progesterone ([2]; Table 3, immature estrogen-primed rabbit uterus): 114- % |
| CC(=O)O[C@]1(C(=O)CO)CCC2C3CCC4=CC(=O)CCC4=C3C(c3ccc(N(C)C)cc3)C[C@@]21C (stereo partly drawn) [Compound 41, 17α-acetoxy-21-hydroxy-11β-[4-(N,N-dimethylamino)phenyl]-19-norpregna-4,9-diene-3,20-dione] |  |  |  |  | greater activity than the standard | 140 | 62 |  |
